Reference: US20030195205A1, “PDE9 inhibitors for treating cardiovascular disorders” (Pfizer Inc., priority 2001, published 2003)
Like-named read-outs stand apart in the source and are kept apart here.

Target: T1, purified recombinant human PDE9 (Homo sapiens, UniProt O76083)
T1 construct: FLAG; made in house; host or cells: baculovirus/Sf9
Test: PDE9 enzyme inhibition scintillation proximity assay ([3H]cGMP hydrolysis)
Format: biochemical
Settings: for inhibition at 1 µM: 1 μM compound, read-out: inhibition against PDE9 at a concentration of 1 μM
Protocol: The ability of the compounds of the invention to inhibit the PDE9 enzyme was determined using the following in vitro assay. The assay used purified recombinant human PDE9.
The assay uses [3H]cGMP which is hydrolysed by the PDE9 enzyme to the 5′-nucleotide [3H]GMP. The [3H]GMP binds to yttrium silicate scintillation proximity assay (SPA) beads, and detected by scintillation counting. Inhibition of activity is determined relative to the activity of uninhibited controls.
Phosphodiesterase Scintillation Proximity Assay (SPA) beads (Yttrium Silicate) were obtained from Amersham Biotech.
[^3H]Guanosine 3′,5′-Cyclic Phosphate ([^3H]-cGMP), Ammonium Salt was obtained from Amersham Biotech.
Buffer A was prepared containing Tris.HCl (20 mM), MgCl2.6H2O (5 mM) in water.
Buffer B was prepared containing Bovine Serum Albumin (2 mg/ml) (BSA) in Buffer A. It was prepared fresh and filter sterilised.
PDE9 enzyme solution was prepared in Buffer B (dilution factor determined such that no more than 30% breakdown of substrate occurred, but typically 1:35,000).
SPA beads were prepared by creating a suspension of beads in water (20 mg/ml) (28 ml per pack) containing 3 mM cold cGMP to effectively quench the reaction.
The compounds of the invention were diluted by a factor of 50 (i.e. 2 μl in 100 μl) when constituted in the final assay mix. Compound stock was prepared at 4 mM in DMSO. Dilute 1/8 with DMSO to give 500 μM solutions.
A 4 mM stock of standard inhibitor was prepared in DMSO. The standard inhibitor chosen was 5-(3-bromobenzyl)-3-n-propyl-1,6-dihydro-7H-pyrazolo[4,3-d]pyrimidin-7-one. The solution was further diluted with DMSO to give a 500 μM solution.
Following serial dilution, 2 μl of compound dilutions were dispensed in duplicate into microtitre plates with 2 μl DMSO added to controls as shown below.
To the microtitre plates containing solutions of compounds of the invention (2 μl) was added Buffer A (25 μl) to all wells. Buffer B (25 μl) was added to blank wells. Enzyme solution (25 μl) was added all wells except blanks. Substrate solution (50 μl) was added to each well. The plates were sealed and incubated for 15 minutes on a plate-shaker at 30 °C. SPA bead solution (50 μl) was added (containing excess cGMP) to each well to stop the reaction (Note: yttrium silicate beads are dense and require constant agitation whilst being added to each plate). The plates were shaken for 15 minutes to allow the beads to bind the GMP product and then allowed to settle for 30 minutes.
The plates were then analysed using a scintillation counter (such as the NXT TopCount)TM.
For each compound the percentage inhibition was calculated by the following equation:
(mean maximum−compound value)/(mean maximum−mean minimum)×100
IC50 values were determined from sigmoid dose response curves of enzyme activity vs. compound concentration.

T1 sequence (O76083 whole entry): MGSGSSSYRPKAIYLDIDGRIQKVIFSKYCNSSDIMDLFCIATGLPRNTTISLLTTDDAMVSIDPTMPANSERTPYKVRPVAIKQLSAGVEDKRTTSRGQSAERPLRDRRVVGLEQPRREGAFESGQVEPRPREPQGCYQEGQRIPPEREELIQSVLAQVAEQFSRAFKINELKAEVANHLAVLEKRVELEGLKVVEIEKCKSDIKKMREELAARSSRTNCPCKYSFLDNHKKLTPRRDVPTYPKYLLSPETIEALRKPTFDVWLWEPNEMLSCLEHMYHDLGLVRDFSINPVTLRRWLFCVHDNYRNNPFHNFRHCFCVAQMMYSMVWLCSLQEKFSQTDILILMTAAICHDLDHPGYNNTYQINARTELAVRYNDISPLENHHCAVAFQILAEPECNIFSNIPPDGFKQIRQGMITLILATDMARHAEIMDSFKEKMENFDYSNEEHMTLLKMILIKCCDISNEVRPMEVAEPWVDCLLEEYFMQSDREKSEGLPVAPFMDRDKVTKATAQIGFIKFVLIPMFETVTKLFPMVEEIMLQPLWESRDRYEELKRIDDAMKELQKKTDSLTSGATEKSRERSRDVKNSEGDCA

Row | SMILES | inhibition at 1 µM [%] | IC50 (read-out: IC50 against PDE9) [nM] | IC50 (range the standard inhibitor was expected to fall in, read-out: IC50 of the standard) [nM]
1 | O=c1[nH]c(Cc2ccccc2OC(F)(F)F)nc2c(-c3ccccc3)n[nH]c12 [Compound 263, 5-(2-Trifluoromethoxybenzyl)-3-phenyl-1,6-dihydro-7H-pyrazolo[4,3-d]pyrimidin-7-one] | > 40 | – | –
2 | CC(C)c1n[nH]c2c(=O)[nH]c(Cc3ccccc3OC(F)(F)F)nc12 [Compound 156, 3-isopropyl-5-(2-trifluoromethoxybenzyl)-1,6-dihydro-pyrazolo[4,3-d]pyrimidin-7-one] | > 40 | – | –
3 | CCCc1n[nH]c2c(=O)[nH]c(Cc3cccc(Br)c3)nc12 [standard, 5-(3-bromobenzyl)-3-n-propyl-1,6-dihydro-7H-pyrazolo[4,3-d]pyrimidin-7-one, reference compound] | – | – | 30 to 50
4 | CC(C)c1c2nc(Cc3cccc(Cl)c3)[nH]c(=O)c2nn1C [Compound 262, 5-(3-Chlorobenzyl)-3-isopropyl-2-methyl-2,6-dihydro-7H-pyrazolo[4,3-d]pyrimidin-7-one] | > 40 | – | –
5 | O=c1[nH]c(Cc2ccccc2OC(F)(F)F)nc2c(C3CCCC3)n[nH]c12 [Compound 256, 3-Cyclopentyl-5-(2-trifluoromethoxybenzyl)-1,6-dihydro-pyrazolo[4,3-d]pyrimidin-7one] | > 40 | – | –
6 | CC(C)c1n[nH]c2c(=O)[nH]c(Cc3ccccc3Oc3ccccc3)nc12 [Compound 52, 3-isopropyl-5-(2-phenoxybenzyl)-1,6-dihydro-pyrazolo[4,3-d]pyrimidin-7-one] | > 40 | 126 | –

Continued, values first:

Row | inhibition at 1 µM [%] | IC50 (read-out: IC50 against PDE9) [nM] | IC50 (range the standard inhibitor was expected to fall in, read-out: IC50 of the standard) [nM] | SMILES
7 | – | 141 | – | O=c1[nH]c(Cc2ccccc2OC(F)(F)F)nc2c(-c3cccnc3)n[nH]c12 [Compound 258]
8 | > 40 | 143 | – | O=c1[nH]c(Cc2ccccc2OCc2ccccc2)nc2c(C3CCCC3)n[nH]c12 [Compound 204, 3-cyclopentyl-5-(2-benzyloxybenzyl)-1,6-dihydro-pyrazolo[4,3-d]pyrimidin-7-one]
9 | > 40 | – | – | O=c1[nH]c(Cc2ccccc2OCc2ccccc2)nc2c(-c3cccnc3)n[nH]c12 [Compound 138, 3-(3-pyridinyl)-5-(2-benzyloxybenzyl)-1,6-dihydro-pyrazolo[4,3-d]pyrimidin-7-one]
